Data taken from patent US6714815B2, “Method for the iontophoretic non-invasive determination of the in vivo concentration level of an inorganic or organic substance” (The Regents of the University of California, priority 1988, dated 2004).
Counter-ions that a name gives are not always drawn.

What was measured:
[1] = In-vitro iontophoretic delivery of P.S.O.S. in the diffusion cell; format: in vitro ADME
Method: (b) P.S.O.S. (Potassium Sucrose Octa Sulfate) P.S.O.S., 0.6 ml of 1.5 mg/ml solution in a boric buffer is placed in chamber 16A and boric acid buffer alone is placed in chamber 16C of FIGS. 1, 2 or 3. Using a direct current of 0.5 mA (0.65 mA/cm^2) transport of P.S.O.S is observed up to 5 μg/hr.

[2] = Method: FIG. 5—The iontophoretic sampling was extended to another neutral bioactive molecule: ethanol.
An identical protocol to that employed for glucose experiments is followed. The only difference being in the concentration of ethanol in the dermal side. A concentration of 17 mM was used as this corresponds to a 0.08% solution, the maximum blood alcohol level legally allowed.
Radioactivity was again used to measure the extracted ethanol. The dermal side using radioactive ethanol, [1-14C]

[3] = forearm of a person; compared with in vitro case
[4] = remark: listed apart in the source
Method: Drugs—Clonidine HCl (Sigma Chemical Co., St. Louis, Mo.); Clonidine-HCl (phenyl-4-^3H) of specific activity 90 mCi/mg (Amersham, Arlington Heights, Ill.). […] The non-labelled drugs were dissolved in deionized water to form solutions of 1 mg/ml, with enough labelled drug to achieve an activity of approximately […].
Skin (13)—Full-thickness skin, freshly excised from 11-15 week old female hairless mice (strain Skh:HR-1, Simonsen Laboratory, Gilroy, Calif.).
Testing of the Modeling Cell—The diffusion cell 10 was tested in three ways:
(1) Leakage tests (without current) using dye and silicone rubber than skin; (2) leakage tests using dye and skin (without current); and (3) iontophoretic tests using the drug solutions and skin (with and without current). Procedures (1) and (2) were evaluated by visually inspecting the cell. For procedure (3), 0.6 ml of labelled drug solution was placed in chamber 16A, 0.6 ml of buffered saline was pipetted into chamber 16C, and a constant current of 0.63 mA/cm^2 (with the voltage limited at 9 V) was imposed between the electrodes in the two chambers. The activity of the solutions in chambers 16A and 16C was determined before and after iontophoresis. The activity of the skin 13 and of the samples taken from the receptor chamber was determined post-experimentally. Each experiment lasts approximately 24 hours, ±2 hours, with samples collected hourly. Receptor fluid 17 was magnetically stirred (27), and the collection flow rate was 10 ml/hr. Each procedure was, repeated three times.

[5] = female, Skh:HR-1 hairless, mouse, 1 mg/ml

O=S(=O)([O-])OC[C@H]1O[C@@](COS(=O)(=O)[O-])(O[C@H]2O[C@H](COS(=O)(=O)[O-])[C@@H](OS(=O)(=O)[O-])[C@H](OS(=O)(=O)[O-])[C@H]2OS(=O)(=O)[O-])[C@@H](OS(=O)(=O)[O-])[C@@H]1OS(=O)(=O)[O-].[K+].[K+].[K+].[K+].[K+].[K+].[K+].[K+] [P.S.O.S, Potassium Sucrose Octa Sulfate]
transport of P.S.O.S ([1]; direct current of 0.5 mA (0.65 mA/cm^2), 0.6 ml of 1.5 mg/ml in boric buffer in chamber 16A): up to 5 μg/hr | P.S.O.S transferred ([1]; same experimental configuration, printed 'with a current'): only a few nanograms

CCO [ethanol]
amount of ethanol extracted iontophoretically ([2]; ethanol 17 mM on the dermal side, compared with glucose): far greater than that obtained with glucose | passive flux ([2]; ethanol 17 mM on the dermal side, no current): large passive flux | cathodal versus anodal concentration ([2]; preliminary experiments): cathodal concentration is greater than anodal | metabolism during iontophoretic sampling ([2]; preliminary experiments): does not seem to be metabolized

Clc1cccc(Cl)c1N=C1NCCN1 [clonidine-HCl, Clonidine HCl]
amount of clonidine sampled [3]: comparable to that observed in the in vitro case | drug in the buffered saline of chamber 16C [4]: no drug was found | mean rate of diffusion into the receptor phase (passive transport rate) [4, 5]: 0.05 μg/cm^2/hr | rate of penetration through the skin [4, 5]: 15.0 μg/cm^2/hr | labelled drug detected in the buffered saline of chamber 16C ([4]; female, Skh:HR-1 hairless, mouse, 20 h, 1 mg/ml): 5 µg
